Measurements published in ChEMBL document CHEMBL1138146, “Analysis of anti-PDE3 activity of 2-morpholinochromone derivatives reveals multiple mechanisms of anti-platelet activity” (Bioorg Med Chem Lett, 2006).
The source made the active and inactive calls. The calls are words filed in the database; no cut-off is given here.

Columns and labels:
[1] = molecular target: cGMP-inhibited 3',5'-cyclic phosphodiesterase 3A (Homo sapiens) (UniProt Q14432); experiment: Inhibition of PDE3A at 50 uM
Homo sapiens = species: Homo sapiens; experiment: Inhibition of PAR4AP induced platelet aggregation at 25 uM; format: functional
[2] = molecular target: Phosphodiesterase 3 (Homo sapiens) (UniProt Q14432+Q13370); experiment: Inhibition of PDE3 at 6.25 uM; format: protein assay

Chain of cGMP-inhibited 3',5'-cyclic phosphodiesterase 3A (Homo sapiens) (Q14432 whole entry): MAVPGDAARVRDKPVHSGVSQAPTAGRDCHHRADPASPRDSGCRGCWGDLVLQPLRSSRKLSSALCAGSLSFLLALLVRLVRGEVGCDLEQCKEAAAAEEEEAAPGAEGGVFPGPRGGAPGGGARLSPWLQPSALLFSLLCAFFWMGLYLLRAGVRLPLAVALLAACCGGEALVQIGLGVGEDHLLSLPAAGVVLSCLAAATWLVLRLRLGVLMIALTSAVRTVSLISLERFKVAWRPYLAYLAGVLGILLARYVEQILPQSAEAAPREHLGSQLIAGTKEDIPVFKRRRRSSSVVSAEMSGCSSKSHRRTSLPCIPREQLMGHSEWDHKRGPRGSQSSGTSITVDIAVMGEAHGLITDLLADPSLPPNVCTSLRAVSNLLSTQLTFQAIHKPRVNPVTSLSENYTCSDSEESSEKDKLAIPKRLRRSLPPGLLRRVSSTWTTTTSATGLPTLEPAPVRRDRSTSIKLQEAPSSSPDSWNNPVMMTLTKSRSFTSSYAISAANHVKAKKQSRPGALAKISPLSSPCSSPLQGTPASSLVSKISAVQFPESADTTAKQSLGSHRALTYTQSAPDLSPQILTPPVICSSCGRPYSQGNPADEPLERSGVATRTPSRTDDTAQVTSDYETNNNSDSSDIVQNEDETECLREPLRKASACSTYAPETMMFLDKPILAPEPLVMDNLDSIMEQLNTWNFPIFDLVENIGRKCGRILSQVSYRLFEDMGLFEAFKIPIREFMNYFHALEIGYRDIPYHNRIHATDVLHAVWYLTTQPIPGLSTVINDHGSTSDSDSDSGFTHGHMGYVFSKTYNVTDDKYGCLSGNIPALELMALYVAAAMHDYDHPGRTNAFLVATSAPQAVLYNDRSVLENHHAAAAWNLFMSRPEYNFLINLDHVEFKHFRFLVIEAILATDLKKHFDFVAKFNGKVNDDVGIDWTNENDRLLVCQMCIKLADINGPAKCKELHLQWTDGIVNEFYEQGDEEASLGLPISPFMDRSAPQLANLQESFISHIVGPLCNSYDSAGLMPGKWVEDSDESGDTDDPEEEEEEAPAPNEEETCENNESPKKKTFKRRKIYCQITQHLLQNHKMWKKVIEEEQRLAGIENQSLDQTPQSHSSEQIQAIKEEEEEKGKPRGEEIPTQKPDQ

| Structure (SMILES) | inhibition [1] | Activity (Homo sapiens) | inhibition [2] |
| --- | --- | --- | --- |
| O=c1cc(N2CCOCC2)oc2c(CCc3ccccc3)cccc12 | 28% |  |  |
| Cc1c(Oc2ccccc2)ccc2c(=O)cc(N3CCOCC3)oc12 | 78% |  |  |
| COc1cc(-c2ccc(Cl)cc2)c2oc(N3CCOCC3)cc(=O)c2c1 | 63% |  |  |
| O=c1cc(N2CCOCC2)oc2cc(OCc3cccnc3)ccc12 | 19% |  |  |
| O=c1cc(N2CCOCC2)oc2cc(C#Cc3ccccc3)ccc12 | 70% |  |  |
| O=c1cc(N2CCOCC2)oc2c(C#Cc3ccccc3)cccc12 | 60% |  |  |
| O=c1cc(N2CCOCC2)oc2cc(OCc3ccccc3)ccc12 | 49% |  |  |
| O=c1cc(N2CCOCC2)oc2c(OCc3ccccc3)cccc12 | -7% |  |  |
| Cc1c(OCc2ccccc2)ccc2c(=O)cc(N3CCOCC3)oc12 | 86% | Active |  |
| O=c1cc(N2CCOCC2)oc2c(-c3ccccc3)cccc12 | 35% |  |  |
| Cc1c(-c2ccccc2)ccc2c(=O)cc(N3CCOCC3)oc12 | 83% |  |  |
| Cc1c(C#Cc2ccccc2)ccc2c(=O)cc(N3CCOCC3)oc12 | 44% |  |  |
| Cc1c(OCc2cccnc2)ccc2c(=O)cc(N3CCOCC3)oc12 | 68% |  | 46% |
| O=c1cc(N2CCOCC2)oc2cc(-c3ccccc3)ccc12 | 50% |  |  |
| Cc1c(OCCN2CCN(C)CC2)ccc2c(=O)cc(N3CCOCC3)oc12 | -10% |  |  |
| O=c1cc(N2CCOCC2)oc2cc(Oc3ccccc3)ccc12 | 43% |  |  |
| O=c1cc(N2CCOCC2)oc2c(OCc3cccnc3)cccc12 | 5% |  |  |
